The source of these data is publication PMC6804264, “Enlarged Pore Size Chiral Mesoporous Silica Nanoparticles Loaded Poorly Water-Soluble Drug Perform Superior Delivery Effect” (Molecules, 2019).

For data set [1] the following is noted: stated in the introduction, no reference given; cited from earlier work.
For data set [2], the system named is right hind ankle swelling after carrageenan injection into the paw. In words: Anti-inflammatory pharmacodynamics (carrageenan paw model, right hind ankle perimeter). The data set is classed as in vivo, male Sprague–Dawley rats. As to conditions: rats, oral, 40 mg/kg NMS. Here is the method: Right hind ankle perimeter of rats was ascertained to study the anti-inflammatory biological effect of […] or NMS/E-CMSN. Twelve male Sprague-Dawley rats (200 ± 20 g) were separated into four groups (Group A: Normal saline; Group B: NMS; Group C: NMS/CMSN; Group D: NMS/E-CMSN) and then fasted overnight before experiment. The rats in Group B, Group C and Group D were administered orally with corresponding nanoparticles containing 40 mg/kg NMS, while the rats in Group A were administered orally with normal saline. Afterwards, the perimeters of right hind ankles were ascertained. After half an hour, 0.1 mL 1% carrageenan solution was injected subcutaneously into the paw of each rat. […] Then, the following parameters were calculated. (2) Repressionrate(%)=([…]0)positive (3) Swelling rate(%)=Ct-C0/C0×100 where C0 denotes original perimeter of right hind ankle; Ct is the measured perimeter of right hind ankle.
On the technique in general: In the carrageenan paw model, swelling and tenderness develop within hours.

A short description of data set [3]: In vivo pharmacokinetics after oral (intragastric) administration. As to conditions: male, Wistar, rat, rats, 40 mg/kg NMS, plasma. How it is done: 9 Male Wistar rats weighing 200 ± 20 g were randomly split into three groups (A group, NMS; B group, NMS/CMSN; C group, NMS/E-CMSN) and fasted for 12 h but given free access to water prior to the experiment. The three samples were suspended in 1.5 mL normal saline with the drug dose of 40 mg/kg and then orally administered (intragastric administration) to rats. Blood media (0.5 mL) of each animal was collected via the suborbital vein at different time intervals after administration and immediately centrifuged at 8000 rpm for 10 min to collect plasma. Subsequently, the obtained plasma was then stored at […] until analysis. 200 μL plasma sample was mixed with 80 μL of an internal standard solution (0.5 mg/mL) and 400 μL acetonitrile. The mixture was vortexed for 2 min. After centrifugation at 10,000 rpm for 5 min, the supernatant of each sample (20 μL) was subjected to HPLC analysis. The working conditions for HPLC analysis included: Mobile phase: methanol: pH 7.3 potassium dihydrogen phosphate buffer (65:35, v/v); Column temperature: 30 °C; Analysis wavelength: 370 nm; Flow rate: 1.0 mL/min.

Data set [4] can be described thus: Contact angle measurement (wetting property). As to conditions: pH 6.8 PBS; pH 6.8 PBS including trysin (Figure 6). The format is physicochemical. How it is done: To study the wettability differences after loading NMS into the two carriers, dynamic contact angle measurement was performed using JCY series (Shanghai, China). The working conditions covered: Automatic contact angle meter model, pressurized tablet of sample, as well as a drop of dissolution medium (2 μL). The measurement was started when dissolution medium dropped onto the tablet.

With `CS(=O)(=O)Nc1ccc([N+](=O)[O-])cc1Oc1ccccc1` [NMS, nimesulide], the LogP value in data set [1] is given as 3.79. The “time at which anti-inflammatory function started” value in data set [2] turned out to be 0.5 h. For the same compound, the “anti-inflammatory effect according to swelling rate profiles” value in data set [2] (0.5-4 h) is recorded as “exerted anti-inflammatory pharmacodynamics effect”. Besides, in data set [3] (n = 3), the AUC(0-t) – broadly, the area under the concentration-time curve up to a stated or last time point – came out at 199 ± 66.6 µg·h/mL; the concentration peaked (Cmax) at 25400 ± 9680 ng/mL; the Tmax (in general, the time at which the peak concentration occurs) came out at 4 h. Also, the MRT last in data set [3] (n = 3, read-out: MRT(0–t)) amounted to 5.73 ± 0.354 h. In data set [3] (n = 3, read-out: t1/2z (converted)), the half-life is 5.08 ± 2.81 h. For the same compound, the “wetting property / contact angle” value in data set [4] is listed as “poor water wetting property”.
